Measurements from patent US12128035B2, “Activating pyruvate kinase R” (Novo Nordisk Health Care AG, priority 2021, dated 2024).
Values joined by “and” are separate entries in the source; they are usually repeats but may differ in a detail not shown here. Equal values may be shown once. Read-outs that look alike come from different tables or passages of the source.

How the values were obtained:
[1] = cited from earlier work
[2] = Phase 1: hematologic and hemolytic laboratory parameters in SCD patients; assay type: in vivo, human; conditions: for Hemoglobin / Indirect Bilirubin / Lactate Dehydrogenase, U/L / Reticulocytes, %: SCD 300 mg Compound 1/Placebo (blinded) once daily, individual Pt 1-3
Source text: Laboratory changes relative to pretreatment for each pt in the MD cohort as of Jul. In 2 of 3 SCD MD-1 pts treated with Compound 1/placebo (currently blinded), Hb increased by >1 g/dL, % reticulocytes decreased, and markers of hemolysis were improved after 14 days of treatment (compared to pre-treatment levels). Hematologic parameters returned to pre-treatment levels 4 to 7 days post-treatment (data not shown) without clinical AEs.
A median 1.2 g/dL Hb increase (range 0, 2.3) and a median 60% reticulocyte decrease (range −39%, −81%) over baseline were observed. The onset of the increase in Hb was rapid and continued to increase in most patients through the end of treatment, indicating the potential for additional improvement with extended dosing. […] A median 36% LDH decrease (range +18%, −57%) and a median 35% bilirubin decrease (range −7%, −63%) over baseline were observed, which is consistent with the hypothesis that Compound 1 improves RBC survival and reduces RBC turnover.

[3] = intravenous (IV) bolus dose; cited from earlier work
aromatase = target: T1, aromatase (Homo sapiens, UniProt P11511); conditions: Yang et al. 2018; Grace et al. 2019; cited from earlier work
T1 construct: endogenous in cells; host or cells: H295R adreno-cortical carcinoma cells; healthy human subjects in vivo
T1 sequence (P11511 1-503): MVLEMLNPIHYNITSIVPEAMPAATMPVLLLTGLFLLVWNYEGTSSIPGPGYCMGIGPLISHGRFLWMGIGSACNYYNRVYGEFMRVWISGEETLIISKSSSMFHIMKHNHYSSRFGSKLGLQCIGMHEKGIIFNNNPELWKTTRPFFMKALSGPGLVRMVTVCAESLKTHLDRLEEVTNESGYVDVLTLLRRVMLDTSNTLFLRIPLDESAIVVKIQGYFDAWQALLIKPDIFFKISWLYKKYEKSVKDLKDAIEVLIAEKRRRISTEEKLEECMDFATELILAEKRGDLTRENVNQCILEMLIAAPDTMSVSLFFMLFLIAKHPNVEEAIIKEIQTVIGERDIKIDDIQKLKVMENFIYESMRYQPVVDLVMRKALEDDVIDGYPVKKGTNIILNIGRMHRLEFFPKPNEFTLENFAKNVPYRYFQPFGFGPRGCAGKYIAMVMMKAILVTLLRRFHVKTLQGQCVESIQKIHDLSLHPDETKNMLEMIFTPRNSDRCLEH

PKR (G332S) = PKR (G332S) (Homo sapiens, UniProt P30613, G332S); test: Luminescence Assay (Kinase Glo Plus) of PKR activation; assay type: biochemical; conditions: read-out: AC50 (PKRG332S)
Sequence of PKR (G332S) (P30613 whole entry G332S): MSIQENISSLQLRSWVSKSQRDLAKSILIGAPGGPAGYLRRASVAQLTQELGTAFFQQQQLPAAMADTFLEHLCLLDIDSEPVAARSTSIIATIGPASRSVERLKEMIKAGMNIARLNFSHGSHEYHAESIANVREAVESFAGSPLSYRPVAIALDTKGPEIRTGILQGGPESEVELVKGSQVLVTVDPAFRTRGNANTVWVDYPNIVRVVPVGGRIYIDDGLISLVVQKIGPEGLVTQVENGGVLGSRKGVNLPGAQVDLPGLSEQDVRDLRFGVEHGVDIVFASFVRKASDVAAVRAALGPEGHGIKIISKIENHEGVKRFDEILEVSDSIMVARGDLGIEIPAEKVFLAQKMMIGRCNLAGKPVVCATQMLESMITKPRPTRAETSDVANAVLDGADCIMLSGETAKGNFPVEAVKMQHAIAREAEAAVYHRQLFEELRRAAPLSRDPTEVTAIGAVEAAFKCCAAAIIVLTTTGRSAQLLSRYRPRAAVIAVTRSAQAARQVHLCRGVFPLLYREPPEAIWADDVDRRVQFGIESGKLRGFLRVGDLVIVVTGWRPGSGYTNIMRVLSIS
Description: (§1) PKR Activating Compounds can be identified with the biochemical Luminescence Assay of Example 2. The PKR activating activity of a series of chemical compounds was evaluated using the Luminescence Assay below, including compounds designated Compound 1, and Compound 2, or mixtures thereof.
(§2) For each tested compound, the ability to activate PKR was determined using the following Luminescence Assay. The effect of phosphorylation of adenosine-5′-diphosphate (ADP) by PKR is determined by the Kinase Glo Plus Assay (Promega) in the presence or absence of FBP (D-fructose-1,6-diphosphate; BOC Sciences, CAS: 81028-91-3) as follows. Unless otherwise indicated, all reagents are purchased from Sigma-Aldrich. All reagents are prepared in buffer containing 50 mM Tris-HCl, 100 mM KCl, 5 mM MgCl2, and 0.01% Triton X100, 0.03% BSA, and 1 mM DTT. Enzyme and PEP (phosphoenolpyruvate) are added at 2× to all wells of an assay-ready plate containing serial dilutions of test compounds or DMSO vehicle. Final enzyme concentrations for PKR (wt), PKR(R510Q), and PKR (G332S) are 0.8 nM, 0.8 nM, and 10 nM respectively. Final PEP concentration is 100 μM. The Enzyme/PEP mixture is incubated with compounds for 30 minutes at RT before the assay is initiated with the addition of 2×ADP and KinaseGloPlus. Final concentration of ADP is 100 μM. […] For assays containing FBP, that reagent is added at 30 μM upon reaction initiation. Reactions are allowed to progress for 45 minutes at RT until luminescence is recorded by the BMG PHERAstar FS Multilabel Reader. The compound is tested in triplicate at concentrations ranging from 42.5 μM to 2.2 nM in 0.83% DMSO. AC50 measurements were obtained by the standard four parameter fit algorithm of ActivityBase XE Runner (max, min, slope and AC50). The AC50 value for a compound is the concentration (μM) at which the activity along the four parameter logistic curve fit is halfway between minimum and maximum activity.
(§3) As set forth in Table 2 below, AC50 values are defined as follows: ≤0.1 μM (+++); >0.1 μM and ≤1.0 μM (++); >1.0 μM and ≤40 μM (+); >40 μM (0).

PKR (wt) = PKR (wt) (Homo sapiens, UniProt P30613); test: as above; assay type: biochemical
Sequence of PKR (wt) (P30613 whole entry): as the sequence (P30613 whole entry G332S) above, with S332G counted along it
Description: as §1, §2, §3

PKR(R510Q) = PKR(R510Q) (Homo sapiens, UniProt P30613, R510Q); test: as above; assay type: biochemical; conditions: read-out: AC50 (PKRR510Q)
Sequence of PKR(R510Q) (P30613 whole entry R510Q): as the sequence (P30613 whole entry G332S) above, with S332G, R510Q counted along it
Description: as §1, §2, §3

[4] = whole blood, relative to fasted state

CC(C)n1nccc1-c1ncccc1COc1cccc(O)c1C=O [voxelotor, 2-hydroxy-6-((2-(1-isopropyl-1H-pyrazol-5-yl)pyridin-3-yl)methoxy)benzaldehyde]
increase in AUC with high-fat, high-calorie meal ([1]; plasma): 42% | increase in Cmax with high-fat, high-calorie meal ([1]; plasma): 95% | steady state AUC higher in HbSC vs HbSS genotype patients ([1]; plasma): 23% | steady state Cmax higher in HbSC vs HbSS genotype patients ([1]; plasma): 15% | increase in AUC with high-fat, high-calorie meal [1, 4]: 42% | increase in Cmax with high-fat, high-calorie meal [1, 4]: 45% | steady state AUC higher in HbSC vs HbSS genotype patients ([1]; whole blood): 50% | steady state Cmax higher in HbSC vs HbSS genotype patients ([1]; whole blood): 45%

O=C([C@H](CO)c1ccccc1)N1CC2=C(C1)CN(S(=O)(=O)c1cnc3c(c1)OCCO3)C2 [Compound 1/Placebo]
Hemoglobin ([2]; Day 7 (on Tx)): 7.9 g/dL and 10.4 g/dL and 8.8 g/dL | Indirect Bilirubin ([2]; Day 7 (on Tx)): 2.5 mg/dL and 0.9 mg/dL and 0.8 mg/dL | Lactate Dehydrogenase, U/L ([2]; Day 7 (on Tx)): 148 U/L and 257 U/L and 371 U/L | Reticulocytes, % ([2]; Day 7 (on Tx)): 12.8% and 6.8% and 5.8% | Hemoglobin ([2]; Day 14/15 (EOT)): 7.5 g/dL and 11.1 g/dL and 9.2 g/dL | Indirect Bilirubin ([2]; Day 14/15 (EOT)): 3.0 mg/dL and 0.8 mg/dL and 1.0 mg/dL | Lactate Dehydrogenase, U/L ([2]; Day 14/15 (EOT)): 192 U/L and 226 U/L and 279 U/L | Reticulocytes, % ([2]; Day 14/15 (EOT)): 11.4% and 0.8% and 4.2% | patients with Hb increased by >1 g/dL ([2]; SCD MD-1, Compound 1/placebo (currently blinded), 14 days): 2 of 3

NC(=O)CC[C@H](N)C(=O)O [L-glutamine, (S)-2-aminoglutaramic acid]
volume of distribution [3]: approximately 200 mL/kg

O=C(c1ccc(NS(=O)(=O)c2cccc3cccnc23)cc1)N1CCN(CC2CC2)CC1 [AG-348]
aromatase inhibition (aromatase): Aromatase inhibition has been observed

O=C([C@@H](CO)c1ccccc1)N1CC2=C(C1)CN(S(=O)(=O)c1cnc3c(c1)OCCO3)C2 (single isomer, unassigned) [Compound 2]
AC50 (PKR (G332S)): 1 to 40 µM | AC50 (PKR (wt)): 1 to 40 µM | AC50 (PKR(R510Q)): 1 to 40 µM
